From patent publication US20180203025A1, “HDL THERAPY MARKERS” (Cerenis Therapeutics Holding SA, priority 2014, published 2018)

Assays:
[1] = system: ABCG1 mRNA in mouse macrophages (J774); test: ABCG1 gene expression (real-time PCR) in J774 macrophages; assay type: cell-based
Experimental: J774 were seeded on 6 well plates (300,000 cells/well) and loaded with oxidized-LDL without the use of ^3H-cholesterol. […] Gene expression was assayed using the protocols described in Sections 8.3.2 (RNA extraction); 8.3.4 (reverse transcription), and 8.3.5 (qPCR). ABCG1 gene expression was determined with Taqman probe Mm00437390.m1 according to the manufacturer's protocol. The reference gene used is HPRT1 (Taqman probe: Mm00446968.m1).
(§1) J774 were seeded on 6 well plates (300,000 cells/well) and loaded with oxidized-LDL. […] Gene expression was assayed using the protocols described in Sections 8.3.2 (RNA extraction); 8.3.4 (reverse transcription), and 8.3.5 (qPCR). SR-BI gene (Taqman probe Mm00450234.m1), ABCG1 (Taqman probe Mm00437390.m1), SREBP1 (Taqman probe Mm01138344.m1) and ABCA1 (Taqman probe Mm00442646.m1) expression were determined according to the manufacturer's protocol. The reference gene used is HPRT1 (Taqman probe: Mm00446968.m1).
as §1, with “(qPCR).” for “(qPCR). SR-BI gene (Taqman probe Mm00450234.m1),”, “Mm00437390.m1)” for “Mm00437390.m1), SREBP1 (Taqman probe Mm01138344.m1)”
as §1, with “(qPCR).” for “(qPCR). SR-BI gene (Taqman probe Mm00450234.m1),”, “Mm00437390.m1)” for “Mm00437390.m1), SREBP1 (Taqman probe Mm01138344.m1)”
J774 were seeded on 6 well plates (600,000 cells/well) in DMEM 10% FCS. […] Medium was removed and the macrophages were washed with DMEM. […] Gene expression was assayed using the protocols described in Sections 8.3.2 (RNA extraction); 8.3.4 (reverse transcription), and 8.3.5 (qPCR). ABCG1 (Taqman probe Mm00437390.m1), ABCA1 (Taqman probe Mm00442646.m1) and SR-BI (Taqman probe Mm00450234.m1) expression were determined according to the manufacturer's protocol. The reference gene used is HPRT1 (Taqman probe: Mm00446968.m1).
J774 were seeded on 6 well plates (300,000 cells/well) in DMEM 2.5% FCS. […] The next day, medium was replaced by fresh DMEM supplemented with or without ApoA-I (25 or 250 μg/mL) to initiate ApoA-I cholesterol efflux for 2 hours. The experiment was stopped at different time points: 1) J774 stopped before addition of ApoA-I, 2) J774+DMEM (passive efflux for 2 hours), 3) J774+ApoA-I (25 μg/mL) for 2 hours and 4) J774+ApoA-I (250 μg/mL) for 2 hours. The RNA was extracted with the RiboPure™ kit according to the manufacturer's protocol. Gene expression was assayed using the protocols described in Sections 8.3.2 (RNA extraction); 8.3.4 (reverse transcription), and 8.3.5 (qPCR). ABCA1 (Taqman probe Mm00442646.m1), ABCG1 (Taqman probe Mm00437390.m1), and SR-BI (Taqman probe Mm00450234.m1) expression were determined according to the manufacturer's protocol. The reference gene used is HPRT1 (Taqman probe: Mm00446968.m1).
This study examined the effect of HDL2 on ABCA1, ABCG1 and SR-BI mRNA levels in mouse macrophages. […] J774 were seeded on 6 well plates (300,000 cells/well) and loaded with oxidized-LDL. HDL2 (from 2.5 to 1000 μg/mL) were added for 6 hours on the macrophages and the RNA were extracted with the RiboPure™ kit according to the manufacturer's protocol. Gene expression was assayed using the protocols described in Sections 8.3.2 (RNA extraction); 8.3.4 (reverse transcription), and 8.3.5 (qPCR). ABCA1 (Taqman probe Mm00442646.m1), ABCG1 (Taqman probe Mm00437390.m1) and SR-BI (Taqman probe Mm00450234.m1) gene expression were determined according to the manufacturer protocols.

[2] = system: SREBP-1 mRNA in mouse macrophages (J774); test: SREBP-1 gene expression (real-time PCR) in J774 macrophages; assay type: cell-based; details: 6 hours
Experimental: The mRNA regulation of those genes expressing ABCA1, ABCG1 and SR-BI is linked to nuclear proteins as LXR, SREBP1 and SREBP2. […] Gene expression was assayed using the protocols described in Sections 8.3.2 (RNA extraction); 8.3.4 (reverse transcription), and 8.3.5 (qPCR). SREBP-1, SREBP-2 and LXR gene expression levels were determined with Taqman probe (Mm01138344.m1, Mm01306292.m1, Mm00443451.m1 respectively) according to the manufacturer's protocol. The reference gene used is HPRT1 (Taqman probe: Mm00446968.m1).
as §1
This study used β-cyclodextrin to examine the effect of β-cyclodextrin on LXR, SREBP1 and SREBP2 mRNA expression in J774 macrophages. J774 were seeded on 6 well plates (300,000 cells/well). β-cyclodextrin (0.03, 0.1, 0.3, 1, 3, 10 and 30 mM) was added for 6 hours on the macrophages and the RNA were extracted with the RiboPure™ kit according to the manufacturer's protocol. Gene expression was assayed using the protocols described in Sections 8.3.2 (RNA extraction); 8.3.4 (reverse transcription), and 8.3.5 (qPCR). SREBP-1, SREBP-2 and LXR gene expression were determined with Taqman probe (Mm01138344.m1, Mm01306292.m1, Mm00443451.m1 respectively) according to the manufacturer's protocol. The reference gene used is HPRT1 (Taqman probe: Mm00446968.m1).

Compound | ABCG1 mRNA level ([1]; Study O, 0.03 to 30 mM, 6 hours) | SREBP-1 mRNA ([2]; Study P, 0.03 to 30 mM) | ABCG1 mRNA expression ([1]; Study B, oxidized-LDL loaded, 25, 250 and 1000 μg/mL, 6 hours) | ABCG1 mRNA level ([1]; Study G, 250 μg/mL, 6 hours, without cAMP) | ABCG1 mRNA level (RQ) ([1]; Study G, overnight cAMP 300 μM, then 250 μg/mL 6 hours) | dose of maximum decrease of ABCG1 mRNA level ([1]; Study I, 6 hours) | doses at which decrease of ABCG1 mRNA level was observed ([1]; Study I, 6 hours, presence or absence of cAMP) [µg/mL] | ABCG1 mRNA level ([1]; Study J, 24 hours treatment, 250 μg/mL) | time for ABCG1 mRNA level to return to baseline after removal ([1]; Study J, after 24 hours at 250 μg/mL) [h] | SREBP-1 gene expression ([2]; Study D, 25, 250 and 1000 μg/mL) | concentration above which SREBP1 decrease and plateau observed ([2]; Study E)
OC[C@H]1O[C@@H]2O[C@H]3[C@H](O)[C@@H](O)[C@@H](O[C@H]4[C@H](O)[C@@H](O)[C@@H](O[C@H]5[C@H](O)[C@@H](O)[C@@H](O[C@H]6[C@H](O)[C@@H](O)[C@@H](O[C@H]7[C@H](O)[C@@H](O)[C@@H](O[C@H]8[C@H](O)[C@@H](O)[C@@H](O[C@H]1[C@H](O)[C@H]2O)O[C@@H]8CO)O[C@@H]7CO)O[C@@H]6CO)O[C@@H]5CO)O[C@@H]4CO)O[C@@H]3CO [β-cyclodextrin, reference compound] | dose-dependent decrease | dose-dependent decrease | – | – | – | – | – | – | – | – | –
CER-001: engineered recombinant human apolipoprotein A-I HDL with sphingomyelin and DPPG; protein-to-phospholipid ratio 1:2.7, 97% Sph and 3% DPPG | – | – | decreased the ABCG1 mRNA at all the doses | decreased | 1 | around 15 μg/mL | 4 to 6 | decrease | 8 | affected SREBP-1 mRNA levels | above 2.5 μg/mL
